The subject of data set [1] is myocilin protein in CM of monkey TM cells. Nature of the data set: Myocilin protein in conditioned media of monkey TM cells (Western blot). To be noted: for Effect on myocilin concentrations in CM: 3 to 300 nM, second 48-hour treatment period. The class given is cell-based, rhesus monkeys (Macaca mulatta). On the procedure:
All animal procedures were in accordance with the ARVO (Association for Research in Vision and Ophthalmology) resolution on animal care. Eyes from freshly killed, healthy rhesus monkeys (Macaca mulatta), obtained from Lonza (Walkersville, Md.), were transported in CO2-independent medium on ice, and processed approximately 40 hours post-enucleation. Following removal of iris, lens, and the bulk of the ciliary body, opercula (an anatomical feature of monkey TM) were stripped from anterior segment quadrants. Using fine scissors, strips of TM were excised, and subdivided TM fragments were explanted to multiwell plates containing growth medium (described below) and incubated with Cytodex-3 gelatin-coated beads (Sigma Chemical Company, St. Louis, Mo.). The beads attach to the explants within hours and provide additional substrate area for out-migration of cells. Proliferating TM cells colonize additional beads and also “spill” onto the tissue culture plastic and form colonies. After several days, the original TM explants and beads were transferred to new wells, generating additional primary cultures. Subconfluent monolayers of cells on tissue culture plastic were passed from 12-well plates to 35- or 60-mm dishes using a Collagenase-Dispase (Roche Applied Bioscience, Indianapolis, Ind.). Second- or third-passage subcultures were finally harvested enzymatically as above, and the cells were counted and cryopreserved in liquid nitrogen.
For each study, up to nine TM cell strains, each derived from an individual monkey, were tested separately. Cells were thawed and seeded into 12- or 48-well clusters (Falcon, BD Biosciences; 150,000 and 30,000 cells/well, respectively) in proliferation medium. When cells were 75% to 90% confluent proliferation medium was replaced by a 5:4 mixture of HESFM and Dulbecco's MEM, respectively, supplemented with 10% FBS, with added taurine, ascorbic acid phosphate, glutathione, and antibiotic as for proliferation medium (above), and with 2.72 g/L glucose and 1.72 g/L fructose. At confluence, the medium was changed to Dulbecco's MEM, containing 10% FBS^40, ascorbic acid phosphate, antibiotic, 2.72 g/L glucose and 1.72 g/L fructose. Cells were maintained as stable, confluent monolayers in this latter medium for 4 to 7 days before experimental treatments commenced.
All treatments, including media for vehicle control samples, contained a final DMSO concentration of 0.1% (v/v) across the concentration ranges selected. Treatments lasted 96 hours, with one exchange of medium on the third treatment day. The final 48-hr conditioned media (“CM”) samples were collected in their entirety (0.5 ml), centrifuged briefly to remove particulates, aliquoted, and stored at −20° C. until thawed for analysis.
Undiluted CM was combined with denaturing 4× sample buffer containing 2% SDS, and samples were loaded at equivalent protein content onto 4-20% Tris-HCl polyacrylamide gels (BioRad, Hercules, Calif.). After electrophoresis, proteins underwent wet transfer to […] nitrocellulose (BioRad) for immunoblotting. The filters were blocked with 5% (w/v) nonfat dry milk (BioRad) in Tris-buffered saline plus 0.02% (v/v) Tween-20 (“TBST”; Tween-20 from Calbiochem, San Diego, Calif.), and incubated with a 1:2000 dilution (from 200 μg/ml) of goat anti-recombinant human myocilin antibody (R&D Systems, Minneapolis, Minn.) in blocking buffer, overnight at 4° C. […]

The test system of data set [2] is rabbit eye. Nature of the data set: Pupillary diameter measurement, rabbit paracentesis model. Conditions: individual eyes; for Pupillary diameter T2: −5 min: 5 min before the first paracentesis; for Pupillary diameter T3: +115 min: 5 min before the second paracentesis; for Pupillary diameter Δ(T3 − T1): +115 min minus −180 min; for Pupillary diameter T1: −180 min: basal. Type of data set: in vivo. On the procedure:
Each rabbit was placed in a restraint device and tagged with the alphanumeric code. The formulations were instilled (50 μl) into the conjunctival sac of both eyes 180, 120, 90 and 30 min before the first paracentesis; then 15, 30, 90 min after the first paracentesis. To perform the first paracentesis the animals were anaesthetized by intravenous injection of 5 mg/kg Zoletil® (Virbac; 2.5 mg/kg tiletamine HCl and 2.5 mg/kg zolazepam HCl) and one drop of local anesthetic (Novesina®, Novartis) was administered to the eye. Anterior chamber paracentesis was performed with a 26 G needle attached to a tuberculin syringe; the needle was introduced into the anterior chamber through the cornea, taking care not to damage the tissues. Two hours after the ® first paracentesis, the animals were sacrificed with 0.4 ml Tanax® (Intervet International B.V.) and the second paracentesis was performed. About 100 μl of aqueous humor were removed at the second paracentesis. Aqueous humor was immediately split in four aliquots and stored at −80° C. until analysis. Then both eyes were enucleated and the iris-ciliary body was carefully excised, placed in polypropylene tubes, and stored at −80° C. until analysis.
The pupillary diameter of both eyes was measured with a Castroviejo caliper 180 min and 5 min before the first paracentesis and 5 min before the second paracentesis.
Pupillary diameter, PGE2, protein, PMN, and MPO were expressed as mean±SEM. Statistical analysis was performed using one way ANOVA followed by a Newman-Keuls post hoc test. Clinical score was expressed as % of eyes and the statistical analysis was performed using Kruskal-Wallis followed by a Dunn post hoc test. P<0.05 was considered statistically significant in both cases. Prism 4 software (GraphPad Software, Inc.) was used for the analysis and graphs.

Where [3] appears, read: 0.1% topical formulation, listed as BOL.
Where [4] appears, read: 0.5% topical formulation, listed as BOL.
Where [5] appears, read: 1% topical formulation, listed as BOL.
The mark [6] stands for this setting: 0.1% topical formulation, listed as Dex.

“And” between values parts separate entries of the source, which are not always exact repeats. Identical values can stand only once.

Turning to `Cc1ccc2c(NCC(O)(CC(C)(C)c3cc(F)cc4c3OCC4)C(F)(F)F)cccc2n1` (stereo not drawn) [BOL-303242-X], in data set [1], the “Levels of myocilin protein released by cultured monkey TM cells, compared to DEX” value is given as “significantly lower levels” and the “Effect on myocilin concentrations in CM” value was “increased myocilin concentrations in a dose-dependent manner”. Moreover, in data set [1] (computed across all nine TM cells strains), the “Maximal efficacy for myocilin accumulation in CM, relative to DEX treatment” value was “about 50%”. Also, in data set [1] (monkey TM cells, compared with DEX at high doses), the “Activity on myocilin gene expression” value is listed as “partial agonist activity”. Besides, in data set [2] (setting [3]), the “Pupillary diameter T2: −5 min” value was 6.5 mm (3×) and 7.0 mm (4×) and 7.5 mm; the “Pupillary diameter T3: +115 min” value was 5.0 mm (2×) and 6.0 mm (3×) and 6.5 mm and 5.5 mm (2×); the “Pupillary diameter Δ(T3 − T1)” value is −1.5 mm (4×) and −0.5 mm (2×) and −1.0 mm (2×); the “Pupillary diameter T1: −180 min” value was 6.5 mm (4×) and 7.0 mm (3×) and 7.5 mm. Besides, in data set [2] (setting [4]), the “Pupillary diameter T2: −5 min” value is 8.0 mm (3×) and 7.0 mm (4×) and 7.5 mm; the “Pupillary diameter T3: +115 min” value was 6.5 mm (4×) and 6.0 mm (2×) and 7.0 mm (2×); the “Pupillary diameter Δ(T3 − T1)” value is −1.5 mm (2×) and −0.5 mm (2×) and −1.0 mm (4×); the “Pupillary diameter T1: −180 min” value was 8.0 mm (3×) and 7.0 mm (3×) and 7.5 mm (2×). For the same molecule, in data set [2] (setting [5]), the “Pupillary diameter T2: −5 min” value is 6.0 mm (2×) and 6.5 mm (4×) and 7.0 mm (2×); the “Pupillary diameter T3: +115 min” value is 5.5 mm (2×) and 5.0 mm (4×) and 6.0 mm (2×); the “Pupillary diameter Δ(T3 − T1)” value is −0.5 mm (3×) and −1.5 mm (2×) and −1.0 mm (3×); the “Pupillary diameter T1: −180 min” value was 6.0 mm (3×) and 6.5 mm (5×).
For `C[C@@H]1C[C@H]2[C@@H]3CCC4=CC(=O)C=C[C@]4(C)[C@@]3(F)[C@@H](O)C[C@]2(C)[C@@]1(O)C(=O)CO` [dexamethasone, reference compound], the “Effect on myocilin concentrations in CM” value in data set [1] is “increased myocilin concentrations in a dose-dependent manner”. Besides, in data set [2] (setting [6]), the “Pupillary diameter T2: −5 min” value is 5.5 mm and 6.5 mm (3×) and 6.0 mm (2×) and 7.0 mm and 7.5 mm; the “Pupillary diameter T3: +115 min” value is 5.5 mm (3×) and 6.0 mm (2×) and 4.5 mm and 5.0 mm and 6.5 mm; the “Pupillary diameter Δ(T3 − T1)” value is −0.5 mm (3×) and −1.5 mm (2×) and 0.5 mm and 0.0 mm and −2.0 mm; the “Pupillary diameter T1: −180 min” value was 6.0 mm and 7.0 mm (2×) and 5.5 mm (2×) and 6.5 mm (3×).

Values taken from US20120065228A1, “COMPOSITIONS AND METHODS FOR TREATING, CONTROLLING, REDUCING, OR AMELIORATING OCULAR INFLAMMATORY WITH LOWER RISK OF INCREASED INTRAOCULAR PRESSURE” (priority 2007, published 2012).
